According to patent US11186534B2, “Derivatives of sulindac can protect normal cells against oxidative damage” (University of South Alabama, priority 2017, dated 2021):

Columns and labels:
[1] = test system: Retinal pigmented epithelium cells (ARPE-19); test: Cell viability assay: protection of RPE cells against oxidative damage from TBHP; assay type: cell-based; conditions: for Cyto-protective activity*: RPE cells, TBHP as oxidizing agent, relative to Sulindac; on Cyto-protective activity*: key: active = more active than Sulindac; inactive = less active than Sulindac
Description: Cultured cells and reagents: Retinal pigmented epithelium cells (ARPE-19) were obtained from American Type Culture Collection (ATCC, Manassas, Va.) and cultured at 37° C. in 5% CO2. All chemicals were purchased from Sigma unless specified.
Cell viability assay: Cells were cultured and assayed for cell viability essentially as described previously (14). ARPE-19 cells were plated at 10,000 cells per well in a 96-well plate. The cells were grown for 18-20 hours, the medium discarded in aseptic conditions and replaced with fresh culture medium containing the indicated drug concentration. The plates were incubated for 24 hours at 37° C. in a 5% CO2 incubator in the presence of sulindac or Compound 9. To examine the treatment effects on oxidative damage to RPE cells, cells were washed and incubated in media without serum with various concentrations of tert-butyl hydroperoxide (TBHP) for an additional 24h. The culture medium was then discarded and the cells were thoroughly rinsed in PBS. Cell viability was determined by using the Cell Titer 96 Aqueous One Cell Proliferation Assay (Promega) according to the manufacturer's instructions. The assay utilizes a tetrazolium compound that is converted into a water-soluble formazan by the action of cellular NADH oxidase activity in metabolically active cells. The formazan was quantified by measuring the absorbance at 490 nm using a colorimetric microtiter plate reader (SpectraMax Plus; Molecular Devices).
In the present studies, a series of compounds were identified as having the ability to protect RPE cells against oxidative damage using tert-butyl hydroperoxide (TBHP), an organic peroxide, as an oxidizing agent (10).

COX = conditions: background; cited from earlier work
cells [2] = conditions: background; cited from earlier work
cells [3] = conditions: background; cited from earlier work; remark: listed apart in the source
[4] = test system: rat intact hearts (Langendorff model); test: Langendorff model of ischemia/reperfusion injury, LDH release; assay type: in vivo, Sprague Dawley rats; conditions: 0.7 mg/kg i.p. daily for 48 h; FIG. 9
Description: The ex vivo Langendorff procedure is a well-established preparation used to investigate heart physiology, ischemia/reperfusion injury, and other cardiovascular insults (23, 24; also see, e.g., reference 22). Sprague Dawley rats (275-325g) were administered either no drug or Compound 9 daily (at 0.7 mg/kg) for a total of two days (two administrations in total). Forty-eight hours after the start of drug exposure, hearts were removed and exposed to 45 min no flow ischemia and 2 h reperfusion in the Langendorff model (hearts were first equilibrated in KHB buffer for 10 min and then subjected to 45 min ischemia followed by 2 h reperfusion with KHB buffer), in the absence of drug.
In LDH and TTC assays for the Langendorff Preparation, coronary effluent samples (500 μL) from the Langendorff preparation were obtained upon attachment of excised heart, every 15 min before ischemia, immediately after 45 min ischemia, and at 15 min intervals during reperfusion. LDH was measured (using a Cytotox-96 nonradioactive cytotoxicity assay kit (Promega), with the absorbance read at 490 nm). Immediately upon completion, the heart was sliced into 2-mm cross-sectional pieces and slices were incubated for 30 min with 1% 2,3,5-triphenyl tetrazolium chloride (TTC) stain in Krebs-Henseleit buffer (KHB) (pH=7.4) at 37° C. to distinguish between viable (red) and nonviable (white) tissue. Tissue slices were stored overnight in 10% formaldehyde before measurement of infarct size using NIH-Image J software.
The protective (preconditioning) effect of Compound 9 was evaluated in an art-recognized Langendorff model of ischemia/reperfusion injury. Compound 9 was administered via i.p. injection to test animals daily for two days, and animal hearts were then removed for performance of the Langendorff procedure (described above and known in the art).

SMILES	Cyto-protective activity* [1]	further results
CC1=C(CC(=O)[O-])c2cc(F)ccc2/C1=C\c1ccc(N(C)C)cc1.[Na+] [Compound 2, sodium (Z)-2-(1-(4-(dimethylamino)benzylidene)-5-fluoro-2-methyl-1H-inden-3-yl)acetate]	inactive	–
COc1ccc2c(c1)/C(=C\c1cc(OC)c(OC)c(OC)c1)C(C)=C2CC(=O)O [Compound 3, (Z)-2-(6-methoxy-2-methyl-1-(3,4,5-trimethoxybenzylidene)-1H-inden-3-yl)acetic acid]	inactive	–
COc1ccc2c(c1)C(CC(=O)O)=C(C)/C2=C/c1ccc(SC(F)(F)F)cc1 [Compound 4, (Z)-2-(5-methoxy-2-methyl-1-(4-((trifluoromethyl)thio)benzylidene)-1H-inden-3-yl)acetic acid]	inactive	–
COc1ccc2c(c1)C(CC(=O)O)=C(C)/C2=C/c1cc(OC)c(Br)c(OC)c1 [Compound 5, (Z)-2-(1-(4-bromo-3,5-dimethoxybenzylidene)-5-methoxy-2-methyl-1H-inden-3-yl)acetic acid]	inactive	–
COc1ccc2c(c1)C(CC(=O)O)=C(C)/C2=C/c1ccc(N(C)C)cc1 [Compound 6, (Z)-2-(1-(4-(dimethylamino)benzylidene)-5-methoxy-2-methyl-1H-inden-3-yl)acetic acid]	inactive	–
COc1cc(/C=C2/C(C)=C(CC(=O)O)c3cc(OC)ccc32)cc(OC)c1 [Compound 7, (Z)-2-(1-(3,5-dimethoxybenzylidene)-5-methoxy-2-methyl-1H-inden-3-yl)acetic acid]	inactive	–
COc1cc(/C=C2/C(C)=C(CC(=O)O)c3cc(C)ccc32)cc(OC)c1OC [Compound 8, (Z)-2-(2,5-dimethyl-1-(3,4,5-trimethoxybenzylidene)-1H-inden-3-yl)acetic acid]	inactive	–
COc1ccc2c(c1)C(CC(=O)O)=C(C)/C2=C/c1ccc(OCc2ccccc2)cc1 [Compound 10, (Z)-2-(1-(4-(benzyloxy)benzylidene)-5-methoxy-2-methyl-1H-inden-3-yl)acetic acid]	active	Effectiveness in protecting RPE cells from TBHP compared with sulindac ([1]; compound at 25 μM vs sulindac 200 μM, FIG. 2): equally effective as sulindac; Fold lower effective concentration relative to sulindac (RPE cell protection) ([1]; sulindac 200 μM, Compound 10 at 25 μM, Compound 9 at 10 μM): 8 ×
COc1ccc2c(c1)C(CC(=O)O)=C(C)/C2=C/c1cc(OC)c(OC)c(OC)c1 [Compound 11, (Z)-2-(5-methoxy-2-methyl-1-(3,4,5-trimethoxybenzylidene)-1H-inden-3-yl)acetic acid]	inactive	–
COc1cc(/C=C2/C(C)=C(CC(=O)O)c3cc(F)ccc32)cc(OC)c1OC [Compound 12, (Z)-2-(5-fluoro-2-methyl-1-(3,4,5-trimethoxybenzylidene)-1H-inden-3-yl)acetic acid]	inactive	–
COc1ccc2c(c1)C(CC(=O)O)=C(C)/C2=C/c1ccc(O)c(OC)c1 [Compound 13, (Z)-2-(1-(4-hydroxy-3-methoxybenzylidene)-5-methoxy-2-methyl-1H-inden-3-yl)acetic acid]	inactive	–
COc1cc2c(cc1OC)/C(=C\c1ccc3c(c1)OCO3)C(C)=C2CC(=O)O [Compound 14, (Z)-2-(1-(benzo[d][1,3]dioxol-5-ylmethylene)-5,6-dimethoxy-2-methyl-1H-inden-3-yl)acetic acid]	inactive	–
COc1ccc2c(c1)C(CC(=O)O)=C(C)/C2=C/c1ccc(OC)c(O)c1 [Compound 15, (Z)-2-(1-(3-hydroxy-4-methoxybenzylidene)-5-methoxy-2-methyl-1H-inden-3-yl)acetic acid]	inactive	–
COc1ccc2c(c1)C(CC(=O)O)=C(C)/C2=C/c1cc(Br)c(O)c(OC)c1 [Compound 16, (Z)-2-(1-(3-bromo-4-hydroxy-5-methoxybenzylidene)-5-methoxy-2-methyl-1H-inden-3-yl)acetic acid]	inactive	–
COc1cc(/C=C2/C(C)=C(CC(=O)O)c3cc(OC)c(OC)cc32)cc(OC)c1 [Compound 17, (Z)-2-(1-(3,5-dimethoxybenzylidene)-5,6-dimethoxy-2-methyl-1H-inden-3-yl)acetic acid]	inactive	–
COc1cc2c(cc1OC)/C(=C\c1cc(OC)c(O)c(OC)c1)C(C)=C2CC(=O)NCc1ccco1 [Compound 18, (Z)-N-(furan-2-ylmethyl)-2-(1-(4-hydroxy-3,5-dimethoxybenzylidene)-5,6-dimethoxy-2-methyl-1H-inden-3-yl)acetamide]	inactive	–
COc1ccc2c(c1)C(Cc1nc3cnccc3[nH]1)=C(C)/C2=C/c1cc(OC)c(OC)c(OC)c1 [Compound 19, (Z)-2-((5-methoxy-2-methyl-1-(3,4,5-trimethoxybenzylidene)-1H-inden-3-yl)methyl)-1H-imidazo[4,5-c]pyridine]	inactive	–
COc1cc2c(cc1OC)/C(=C\c1cc(OC)c(OC)c(OC)c1)C(C)=C2CC(=O)NCc1ccco1 [Compound 20, (Z)-2-(5,6-dimethoxy-2-methyl-1-(3,4,5-trimethoxybenzylidene)-1H-inden-3-yl)-N-(furan-2-ylmethyl)acetamide]	inactive	–
COc1cc(/C=C2/C(C)=C(CC(=O)NCc3ccco3)c3cc(OC)c(OC)cc32)cc(OC)c1 [Compound 21, (Z)-2-(1-(3,5-dimethoxybenzylidene)-5,6-dimethoxy-2-methyl-1H-inden-3-yl)-N-(furan-2-ylmethyl)acetamide]	inactive	–
COc1cc2c(cc1OC)/C(=C\c1ccc(N(C)C)cc1)C(C)=C2CC(=O)NCc1ccco1 [Compound 22, (Z)-2-(1-(4-(dimethylamino)benzylidene)-5,6-dimethoxy-2-methyl-1H-inden-3-yl)-N-(furan-2-ylmethyl)acetamide]	inactive	–
COc1ccc2c(c1)C(CC(=O)O)=C(C)/C2=C/c1cc(OC)c(O)c(OC)c1 [Compound 23, (Z)-2-(1-(4-hydroxy-3,5-dimethoxybenzylidene)-5-methoxy-2-methyl-1H-inden-3-yl)acetic acid]	inactive	–
CC1=C(CC(=O)O)c2cc(F)ccc2/C1=C\c1ccc(S(C)(=O)=O)cc1 [Sulindac sulfone]	–	COX inhibitory activity (COX): no COX inhibitory activity; Toxicity to cells relative to sulindac (cells [2]): significantly more toxic; Activity in protecting cells against oxidative damage relative to sulindac (cells [3]): more active than sulindac
CC1=C(CC(=O)O)c2cc(F)ccc2/C1=C\c1ccc([S+](C)[O-])cc1 (centres unmarked) [sulindac]	–	Protective effect during the 45 min ischemia phase [4]: no protective effect; Protective effect during the 2 h reperfusion phase [4]: not as robust; TBHP concentration above which no longer protective for RPE cells ([1]; sulindac at 200 μM, FIG. 2): above 300 μM
